# Earlier results, collected in patent publication US5807981A (FibroGen Inc., priority 1995, dated 1998).
# Where two headings read alike, the source gives them in different places. Starred links: 1 amine or outer side, 2 acyl side, 3 side chain; linkers in the order of their positions; H or OH if unused. Non-standard residues stand in square brackets, D forms with d. Residues, ends and D or L forms follow the SMILES beside them. *: point of attachment. Sta = CC(C)C[C@H](N)[C@@H](O)CC(=O)O; Isovaleryl = CC(C)CC(=O)*; CO = O=C([*:1])[*:2]
# B1: ovostatin (protein, UniProt P20740 37-1473, looked up)
# Ovostatin: KEPEPQYVLMVPAVLQSDSPSQVCLQFFNLNQTISVRVVLEYDTINTTIFEKNTTTSNGLQCLNFMIPPVTSVSLAFISFTAKGTTFDLKERRSVMIWNMESFVFVQTDKPIYKPGQSVMFRVVALDFNFKPVQEMYPLIAVQDPQNNRIFQWQNVTSEINIVQIEFPLTEEPILGNYKIIVTKKSGERTSHSFLVEEYVLPKFDVTVTAPGSLTVMDSELTVKICAVYTYGQPVEGKVQLSVCRDFDSYGRCKKSPVCQSFTKDLDTDGCLSHILSSKVFELNRIGYKRNLDVKAIVTEKEQVCNLTATQSISITQVMSSLQFENVDHHYRRGIPYFGQIKLVDKDNSPISNKVIQLFVNNKNTHNFTTDINGIAPFSIDTSKIFDPELSLKALYKTSDQCHSEGWIEPSYPDASLSVQRLYSWTSSFVRIEPLWKDMSCGQKRMITVYYILNTEGYEHINIVNFYYVGMAKGKIVLTGEIKVNIQADQNGTFMIPLVVNEKMAPALRLLVYMLHPAKELVADSVRFSIEKCFKNKVQLQFSEKQMLTTSNVSLVIEAAANSFCAVRAVDKSMLLLKSETELSAETIYNLHPIQDLQGYIFNGLNLEDDPQDPCVSSDDIFHKGLYYRPLTSGLGPDVYQFLRDMGMKFFTNSKIRQPTVCTRETVRPPSYFLNAGFTASTHHVKLSAEVAREERGKRHILETIREFFPETWIWDIILINSTGKASVSYTIPDTITEWKASAFCVEELAGFGMSVPATLTAFQPFFVDLTLPYSIIHGEDFLVRANVFNYLNHCIKINVLLLESLDYQAKLISPEDDGCVCAKIRKSYVWNIFPKGTGDVLFSITAETNDDEACEEEALRNIRIDYRDTQIRALLVEPEGIRREETQNFLICMKDDVISQDVAIDLPTNVVEGSPRPSFSVVGDIMGTAIQNVHQLLQMPFGNGEQNMVLFAPNIYVLDYLDKTRQLSEDVKSKTIGYLVSGYQKQLSYKHPDGSYSTFGIRDKEGNTWLTAFVYKSFAEASRFIYIDDNVQAQTLIWLATKQKTDGCFQSTGILVNNAMKGGVENELSLSAYITIALLEAGHSMSHTVIRNAFYCLETASEKNITDIYTQALVAYAFCLAGKAEICESFLRELQKSAKEVDGSKYWEQNQRSAPEKSHLLDHVQSTDVEITSYVLLALLYKPNRSQEDLTKASAIVQWIIRQQNSYGGFASMQDTVVALQALAAYGAATYNSVTQNVIKINSKNTFEKVFTVNNENRLLLQQTPLPQVPGKYSLTVNGTGCVLIQTALRYNIHLPEGAFGFSLSVQTSNASCPRDQPGKFDIVLISSYTGKRSSSNMVIIDVKMLSGFVPVKSSLDQLIDDHTVMQVEYKKNHVLLYLGNILQKRRKEVTFSVEQDFVVTHPKPAPVQIYDYYETEEYAVAEYMSLCRGVVEEMG
# Tested on: C-proteinase
# Settings: cited from earlier work; for inhibitory at low concentrations / inhibition of C-proteinase activity (in words) / concentrations at which inhibitory: background, prior art
molecule,measurement,setting,value
[Zn+2] [Zn^2+],inhibitory at low concentrations,,inhibitory at low concentrations
CC(C)CC(=O)N[C@H](C(=O)N[C@H](C(=O)N[C@@H](CC(C)C)[C@@H](O)CC(=O)N[C@@H](C)C(=O)N[C@@H](CC(C)C)[C@@H](O)CC(=O)O)C(C)C)C(C)C [pepstatin A] (Isovaleryl-VV[Sta]A[Sta]-OH),inhibition of C-proteinase activity (in words),,relatively strong inhibitors
concanavalin A,inhibitory at low concentrations,,inhibitory at low concentrations
[Cl-].[Na+] [NaCl],activity relative to that observed with the standard assay concentration of 0.15M,0.2M NaCl,66%
same,activity relative to that observed with the standard assay concentration of 0.15M,0.3M NaCl,38%
same,activity relative to that observed with the standard assay concentration of 0.15M,0.5M NaCl,25%
Tris-HCl [Tris-HCl buffer],inhibition of C-proteinase activity by buffer,concentration of 0.2-0.5M,markedly inhibited activity
CC(C)C[C@H](NP(=O)(O)O[C@@H]1O[C@@H](C)[C@H](O)[C@@H](O)[C@H]1O)C(=O)N[C@@H](Cc1c[nH]c2ccccc12)C(=O)O [phosphoramidon],inhibition of C-proteinase activity (in words),,weak or no effect
CC(C)[C@H](NC(=O)[C@H](CCCNC(=N)N)NC(=O)N[C@@H](Cc1ccccc1)C(=O)O)C(=O)N[C@H](C=O)CCCNC(=N)N [antipain] ({Phe-CO}-Arg-Val-Arg-aldehyde),inhibition of C-proteinase activity (in words),,weak or no effect
[Cd+2] [Cd^2+],inhibitory at low concentrations,,inhibitory at low concentrations
O[C@H](CS)[C@H](O)CS (racemic) [Dithiothreitol],inhibitory at low concentrations,,inhibitory at low concentrations
CC(C)C[C@H](NC(=O)[C@@H](NC(=O)N[C@@H](Cc1ccccc1)C(=O)O)[C@@H]1CCN=C(N)N1)C(=O)N[C@H](C=O)Cc1ccccc1 [chymostatin],inhibition of C-proteinase activity (in words),,relatively strong inhibitors
N.N.O=S(=O)(O)O [ammonium sulfate],concentrations at which inhibitory,,1 to 10 mM
CC(C)C[C@@H](N)[C@H](O)C(=O)N[C@H](C(=O)N[C@H](C(=O)N[C@@H](CC(=O)O)C(=O)O)C(C)C)C(C)C [amastatin],inhibition of C-proteinase activity (in words),,weak or no effect
CC(C)C[C@H](NC(=O)[C@@H](O)[C@H](N)Cc1ccccc1)C(=O)O [bestatin],inhibition of C-proteinase activity (in words),,weak or no effect
CC(=O)N[C@@H](CC(C)C)C(=O)N[C@@H](CC(C)C)C(=O)N[C@H](C=O)CCCNC(=N)N [leupeptin],inhibition of C-proteinase activity (in words),,weak or no effect
[Cu+2] [Cu^2+],inhibitory at low concentrations,,inhibitory at low concentrations
CC(C)C[C@H](NC(=O)N[C@H](C(=O)N[C@@H](CCC(N)=O)C(=O)N[C@@H](C)C=O)[C@@H]1CCNC(=N)N1)C(=O)O [elastinal],inhibition of C-proteinase activity (in words),,weak or no effect
N=C(N)NCCC[C@H](N)C(=O)O [arginine],inhibition of C-proteinase activity (in words),,inhibited
CCCCCCCCCCCCOS(=O)(=O)[O-].[Na+] [SDS],inhibitory at low concentrations,,inhibitory at low concentrations
α2 -Macroglobulin,inhibition of C-proteinase activity (in words),,at least partially inhibit
NCCCC[C@H](N)C(=O)O [lysine],inhibition of C-proteinase activity (in words),,inhibited
phosphate,concentrations at which inhibitory,,1 to 10 mM
B1,inhibition of C-proteinase activity (in words),,at least partially inhibit
